From ChEMBL document CHEMBL5614449, “Open Source Code Contributions to Global Health: The Case of Antimalarial Drug Discovery” (ACS Med Chem Lett, 2024)
pIC50: −log10 of the molar value.

Tested on: Plasmodium
Assay: Antiplasmodial activity against Plasmodium
Assay type: functional, organism-based

| SMILES | pIC50 |
| --- | --- |
| FC(F)Oc1ccc(-c2nnc3cncc(OCc4cccc(C(F)(F)F)c4)n23)cc1 | 6.41 |
| Fc1cccc(OCCOc2cncc3nnc(-c4ccc(OC(F)F)cc4)n23)c1 | 5.87 |
| FC(F)Oc1ccc(-c2nnc3cncc(OCc4ccc(C(F)(F)F)cc4)n23)cc1 | 5.28 |
| FC(F)Oc1ccc(-c2nnc3cncc(OCc4ccccc4C(F)(F)F)n23)cc1 | 6.05 |
| O=[N+]([O-])c1cccc(CCOc2cncc3nnc(-c4ccc(OC(F)F)cc4)n23)c1 | 6.60 |
| FC(F)Oc1ccc(-c2nnc3cncc(OCCCC(F)(F)F)n23)cc1 | 6.39 |
| COC(COc1cncc2nnc(-c3ccc(OC(F)F)cc3)n12)c1ccccc1 (stereo not drawn) | 6.96 |
| COC(COc1cncc2nnc(-c3ccc(OC(F)F)cc3)n12)c1ccc(OC(F)F)cc1 (stereo not drawn) | 7.11 |
| FC(F)Oc1ccc(-c2nnc3cncc(OCc4ccccc4)n23)cc1 | 5.95 |
| FC(F)Oc1ccc(-c2nnc3cncc(OCc4cc(OC(F)F)ccn4)n23)cc1 | 5.30 |
| FC(F)Oc1ccc(-c2nnc3cncc(OCCc4ccccc4)n23)cc1 | 6.77 |
| FC(F)Oc1ccc(-c2nnc3cncc(OCc4cnccc4C(F)(F)F)n23)cc1 | 5.23 |

The remaining lines, values ahead:

| pIC50 | SMILES |
| --- | --- |
| 5.39 | Fc1cccc(F)c1COc1cncc2nnc(-c3ccc(OC(F)F)cc3)n12 |
| 6.17 | FC(F)Oc1ccc(-c2nnc3cncc(OCc4cccc(Br)c4)n23)cc1 |
| 5.61 | FC(F)Oc1ccc(-c2nnc3cncc(OCc4csc(C(F)(F)F)c4)n23)cc1 |
| < 5.00 | FC(F)Oc1ccc(-c2nnc3cncc(OCc4ccc5c(c4)OCO5)n23)cc1 |
| < 4.60 | FC(F)Oc1ccc(-c2nnc3cncc(OCc4cc5c(cc4Cl)OCO5)n23)cc1 |
| 6.32 | Fc1cc2c(cc1F)C(COc1cncc3nnc(-c4ccc(OC(F)F)cc4)n13)C2 (stereo not drawn) |
